Blank lines part the entries; values can stand above or below the molecule they belong to.
How the values were obtained:
[1] = tested on: Human immunodeficiency virus 2; assay: Antiviral activity against HIV-2 ROD infected in human CEM/0 cells assessed as inhibition of virus-induced cytopathogenicity measured after 4 to 5 days by microscopic analysis; type: functional, organism-based; conditions: Human immunodeficiency virus 2, ROD, CCRF-CEM
[2] = Selectivity index, ratio of CC50 for cytotoxicity against human CEM/0 cells to EC50 for antiviral activity against HIV-2 ROD infected in human CEM/0 cells; type: toxicity, cell-based; conditions: read-out: Ratio CC50/EC50
[3] = tested on: Human immunodeficiency virus 2; assay: Antiviral activity against HIV-2 ROD infected in human CEM/TK- cells assessed as inhibition of virus-induced cytopathogenicity measured after 4 to 5 days by microscopic analysis; type: functional, organism-based; conditions: Human immunodeficiency virus 2, ROD, CCRF-CEM
[4] = tested on: Human immunodeficiency virus 1; assay: Antiviral activity against HIV-1 HE infected in human CEM/0 cells assessed as inhibition of virus-induced cytopathogenicity measured after 4 to 5 days by microscopic analysis; type: functional, organism-based; conditions: Human immunodeficiency virus 1, HE, CCRF-CEM
[5] = Half life of the compound in PBS buffer at pH 7.3 by RP-18-HPLC analysis; type: physicochemical
[6] = Lipophilicity of the compound assessed as retention time by RP-18-HPLC analysis; type: physicochemical
[7] = Drug metabolism in human CEM/0 cells assessed as d4TTP metabolite formation by RP18-HPLC analysis; type: ADME, cell-based; conditions: ccrf-cem
[8] = Drug metabolism in human CEM/0 cells assessed as [hydroxy-[hydroxy-[hydroxy-[[(2S,5R)-5-(5-methyl-2,4-dioxo-pyrimidin-1-yl)-2,5-dihydrofuran-2-yl]methoxy]phosphoryl]oxy-phosphoryl]oxy-phosphoryl]oxy-octadecyl-phosphinic acid formation by RP18-HPLC analysis; type: ADME, cell-based; conditions: ccrf-cem
[9] = Drug metabolism in human CEM/0 cells assessed as d4TDP metabolite formation by RP18-HPLC analysis; type: ADME, cell-based; conditions: ccrf-cem
[10] = Drug metabolism assessed as [hydroxy-[hydroxy-[hydroxy-[[(2S,5R)-5-(5-methyl-2,4-dioxo-pyrimidin-1-yl)-2,5-dihydrofuran-2-yl]methoxy]phosphoryl]oxy-phosphoryl]oxy-phosphoryl]oxy-octadecyl-phosphinic acid formation in presence of pig liver esterase by RP-18-HPLC analysis; type: ADME, Sus scrofa; conditions: isolated protein
[11] = Drug metabolism assessed as d4TTP metabolite formation in presence of pig liver esterase by RP-18-HPLC analysis; type: ADME, Sus scrofa; conditions: isolated protein
[12] = Cytotoxicity against human CEM/0 cells assessed as inhibition of cell proliferation; type: toxicity, cell-based, CCRF-CEM
[13] = Drug metabolism in human CEM/0 cells assessed as half life of d4TTP by RP18-HPLC analysis; type: ADME, cell-based; conditions: ccrf-cem
[14] = Drug metabolism in PBS buffer assessed as d4TMP metabolite formation at pH 7.3 by RP-18-HPLC analysis; type: ADME
[15] = Drug metabolism in human CEM/0 cells assessed as half life of d4T4P by RP18-HPLC analysis; type: ADME, cell-based; conditions: ccrf-cem
[16] = Drug metabolism in citrate-stabilized human plasma assessed as [4-[[hydroxy-[hydroxy-[hydroxy-[hydroxy-[[(2S,5R)-5-(5-methyl-2,4-dioxo-pyrimidin-1-yl)-2,5-dihydrofuran-2-yl]methoxy]phosphoryl]oxy-phosphoryl]oxy-phosphoryl]oxy-phosphoryl]oxymethyl]phenyl]-decanoate formation by RP-18-HPLC analysis; type: ADME, cell-free
[17] = Drug metabolism in human CEM/0 cells assessed as [4-[[hydroxy-[hydroxy-[hydroxy-[hydroxy-[[(2S,5R)-5-(5-methyl-2,4-dioxo-pyrimidin-1-yl)-2,5-dihydrofuran-2-yl]methoxy]phosphoryl]oxy-phosphoryl]oxy-phosphoryl]oxy-phosphoryl]oxymethyl]phenyl]-decanoate formation by RP18-HPLC analysis; type: ADME, cell-based; conditions: ccrf-cem
[18] = Drug metabolism assessed as [4-[[hydroxy-[hydroxy-[hydroxy-[hydroxy-[[(2S,5R)-5-(5-methyl-2,4-dioxo-pyrimidin-1-yl)-2,5-dihydrofuran-2-yl]methoxy]phosphoryl]oxy-phosphoryl]oxy-phosphoryl]oxy-phosphoryl]oxymethyl]phenyl]-decanoate formation in presence of pig liver esterase by RP-18-HPLC analysis; type: ADME, Sus scrofa; conditions: isolated protein
[19] = Drug metabolism in citrate-stabilized human plasma assessed as d4T formation by RP-18-HPLC analysis; type: ADME, cell-free
[20] = Drug metabolism assessed as d4T4P metabolite formation in presence of pig liver esterase by RP-18-HPLC analysis; type: ADME, Sus scrofa; conditions: isolated protein
[21] = Stability of compound assessed as pig liver esterase mediated hydrolysis by measuring half life by RP-18-HPLC analysis; type: ADME, tissue-based, Sus scrofa
[22] = Half life of the compound in human CEM/0 extracts by RP-18-HPLC analysis; type: ADME, CCRF-CEM; conditions: CEM/0 cell extracts
[23] = Drug metabolism in citrate-stabilized human plasma assessed as d4TMP formation by RP18-HPLC analysis; type: ADME, cell-free
[24] = Drug metabolism in citrate-stabilized human plasma assessed as [hydroxy-[hydroxy-[hydroxy-[[(2S,5R)-5-(5-methyl-2,4-dioxo-pyrimidin-1-yl)-2,5-dihydrofuran-2-yl]methoxy]phosphoryl]oxy-phosphoryl]oxy-phosphoryl] octadecyl hydrogen phosphate formation by RP18-HPLC analysis; type: ADME, cell-free
[25] = Drug metabolism in citrate-stabilized human plasma assessed as d4TTP formation by RP18-HPLC analysis; type: ADME, cell-free
[26] = Drug metabolism in citrate-stabilized human plasma assessed as [hydroxy-[hydroxy-[hydroxy-[[(2S,5R)-5-(5-methyl-2,4-dioxo-pyrimidin-1-yl)-2,5-dihydrofuran-2-yl]methoxy]phosphoryl]oxy-phosphoryl]oxy-phosphoryl]oxy-octadecyl-phosphinic acid formation by RP18-HPLC analysis; type: ADME, cell-free
[27] = Drug metabolism in citrate-stabilized human plasma assessed as d4TDP formation by RP18-HPLC analysis; type: ADME, cell-free
[28] = Drug metabolism in human CEM/0 cells assessed as [hydroxy-[hydroxy-[hydroxy-[[(2S,5R)-5-(5-methyl-2,4-dioxo-pyrimidin-1-yl)-2,5-dihydrofuran-2-yl]methoxy]phosphoryl]oxy-phosphoryl]oxy-phosphoryl] octadecyl hydrogen phosphate formation by RP18-HPLC analysis; type: ADME, cell-based; conditions: ccrf-cem
[29] = Drug metabolism assessed as [hydroxy-[hydroxy-[hydroxy-[[(2S,5R)-5-(5-methyl-2,4-dioxo-pyrimidin-1-yl)-2,5-dihydrofuran-2-yl]methoxy]phosphoryl]oxy-phosphoryl]oxy-phosphoryl] octadecyl hydrogen phosphate formation in presence of pig liver esterase by RP-18-HPLC analysis; type: ADME, Sus scrofa; conditions: isolated protein
[30] = Selectivity index, ratio of CC50 for cytotoxicity against human CEM/TK- cells to EC50 for antiviral activity against HIV-2 ROD infected in human CEM/TK- cells; type: toxicity, cell-based; conditions: read-out: Ratio CC50/EC50

Compound: CCCCCCCCCCCCCCCCCCOP(=O)(O)OP(=O)(O)OP(=O)(O)OP(=O)(O)OC[C@@H]1C=C[C@H](n2cc(C)c(=O)[nH]c2=O)O1
Retention_time [6]: 13.3 min

Compound: CCCCCCCCCCCCCCCCCCOP(=O)(OCCCC)OP(=O)(O)OP(=O)(O)OC[C@@H]1C=C[C@H](n2cc(C)c(=O)[nH]c2=O)O1 (stereo partly drawn)
EC50 [1]: 41 nM
EC50 [3]: 32 nM
EC50 [4]: 70 nM

Compound: CCCCOP(=O)(OCCCC)OP(=O)(O)OP(=O)(O)OP(=O)(O)OC[C@@H]1C=C[C@H](n2cc(C)c(=O)[nH]c2=O)O1
Retention_time [6]: 10.2 min

Compound: CCCCCCCCCCCCOP(=O)(OCCCCCCCCCCCC)OP(=O)(O)OP(=O)(O)OP(=O)(O)OC[C@@H]1C=C[C@H](n2cc(C)c(=O)[nH]c2=O)O1
Retention_time [6]: 14.7 min

Compound: CCCCCCCCCCCCCCCCCCP(=O)(OCc1ccc(OC(=O)CCCC)cc1)OP(=O)(O)OP(=O)(O)OP(=O)(O)OC[C@@H]1C=C[C@H](n2cc(C)c(=O)[nH]c2=O)O1 (stereo partly drawn)
Drug metabolism [7]: Metabolite_Detected
Drug metabolism [8]: Metabolite_Detected
Drug metabolism [9]: Metabolite_Detected
Drug metabolism [10]: Metabolite_Detected
EC50 [3]: 6 nM
Retention_time [6]: 15.2 min
Drug metabolism [11]: Metabolite_Detected

Compound: CCCCCCCCCCCCCCCCCCOP(=O)(OCc1ccc(OC(=O)CCCC)cc1)OP(=O)(O)OP(=O)(O)OC[C@@H]1C=C[C@H](n2cc(C)c(=O)[nH]c2=O)O1 (stereo partly drawn)
EC50 [1]: 160 nM
selectivity ratio [2]: 76
EC50 [3]: 170 nM
EC50 [4]: 180 nM
half-life [5]: 237 h
CC50 [12]: 13000 nM

Compound: CCCCCCCCCC(=O)Oc1ccc(COP(=O)(OCc2ccc(OC(=O)CCCCCCCCC)cc2)OP(=O)(O)OP(=O)(O)OC[C@@H]2C=C[C@H](n3cc(C)c(=O)[nH]c3=O)O2)cc1
half-life [21]: 4.92 min
Retention_time [6]: 16.3 min
half-life [22]: 2.8 h
half-life [5]: 44 h

Compound: CCCCCCCCCCCCCCCCCCP(=O)(OCCCC)OP(=O)(O)OP(=O)(O)OC[C@@H]1C=C[C@H](n2cc(C)c(=O)[nH]c2=O)O1 (stereo partly drawn)
EC50 [1]: 35 nM
EC50 [3]: 18 nM
EC50 [4]: 31 nM

Compound: CCCCCCCCCCCCCCCCCCOP(=O)(OCc1ccc(OC(=O)CCCC)cc1)OP(=O)(O)OP(=O)(O)OP(=O)(O)OC[C@@H]1C=C[C@H](n2cc(C)c(=O)[nH]c2=O)O1 (stereo partly drawn)
Drug metabolism [7]: Metabolite_Detected
Drug metabolism [9]: Metabolite_Detected
Drug metabolism [24]: Metabolite_Detected
Retention_time [6]: 15.3 min
Drug metabolism [28]: Metabolite_Detected
Drug metabolism [29]: Metabolite_Detected
Drug metabolism [19]: Metabolite_Detected
Drug metabolism [11]: Metabolite_Detected

Compound: Cc1cn([C@H]2C=C[C@@H](CO)O2)c(=O)[nH]c1=O [STAVUDINE]
selectivity ratio [2]: 1
selectivity ratio [30]: 1

More lines, main results first:

EC50 [1]: 21 nM
EC50 [3]: 42 nM
EC50 [4]: 7 nM
half-life [5]: 646 h
Compound: CCCCCCCCCCCCCCCCCCP(=O)(OCc1ccc(OC(=O)CCCC)cc1)OP(=O)(O)OP(=O)(O)OC[C@@H]1C=C[C@H](n2cc(C)c(=O)[nH]c2=O)O1 (stereo partly drawn)
selectivity ratio [2]: 452

Retention_time [6]: 15.2 min
Compound: CCCCCCCCCCCCCCCCCCOP(=O)(OCC(CC)CCCC)OP(=O)(O)OP(=O)(O)OP(=O)(O)OC[C@@H]1C=C[C@H](n2cc(C)c(=O)[nH]c2=O)O1 (stereo partly drawn)

Retention_time [6]: 16 min
Compound: CCCCCCCCCCCCCCCCOC(=O)Oc1ccc(COP(=O)(OCc2ccc(OC(=O)CCCC)cc2)OP(=O)(O)OP(=O)(O)OP(=O)(O)OC[C@@H]2C=C[C@H](n3cc(C)c(=O)[nH]c3=O)O2)cc1 (stereo partly drawn)

Retention_time [6]: 10.2 min
Compound: Cc1cn([C@H]2C=C[C@@H](COP(=O)(O)OP(=O)(O)OP(=O)(O)OP(=O)(O)O)O2)c(=O)[nH]c1=O
selectivity ratio [2]: 454

Retention_time [6]: 13.2 min
Compound: CCCCCCCCCCCCCCCCCCP(=O)(O)OP(=O)(O)OP(=O)(O)OP(=O)(O)OC[C@@H]1C=C[C@H](n2cc(C)c(=O)[nH]c2=O)O1
selectivity ratio [2]: 105

Drug metabolism [9]: Metabolite_Detected
Retention_time [6]: 14.5 min
t1/2 [13]: 0.633 h
Drug metabolism [11]: Metabolite_Detected
Drug metabolism [14]: Metabolite_Detected
Compound: CCCCCCCCCCCCCCCCCCOP(=O)(OCCCC)OP(=O)(O)OP(=O)(O)OP(=O)(O)OC[C@@H]1C=C[C@H](n2cc(C)c(=O)[nH]c2=O)O1 (stereo partly drawn)

t1/2 [15]: 0.367 h
Retention_time [6]: 15.2 min
t1/2 [13]: 0.633 h
Drug metabolism [16]: Metabolite_Detected
Drug metabolism [17]: Metabolite_Detected
Drug metabolism [18]: Metabolite_Detected
Drug metabolism [19]: Metabolite_Detected
Drug metabolism [11]: Metabolite_Detected
Drug metabolism [20]: Metabolite_Detected
Compound: CCCCCCCCCC(=O)Oc1ccc(COP(=O)(OCc2ccc(OC(=O)CCCCCCCCC)cc2)OP(=O)(O)OP(=O)(O)OP(=O)(O)OC[C@@H]2C=C[C@H](n3cc(C)c(=O)[nH]c3=O)O2)cc1

Drug metabolism [23]: Metabolite_Notdetected
Drug metabolism [9]: Metabolite_Detected
Drug metabolism [24]: Metabolite_Notdetected
Retention_time [6]: 14.4 min
t1/2 [13]: 0.633 h
Drug metabolism [25]: Metabolite_Notdetected
Drug metabolism [26]: Metabolite_Notdetected
Drug metabolism [27]: Metabolite_Notdetected
Drug metabolism [11]: Metabolite_Detected
Drug metabolism [14]: Metabolite_Detected
Compound: CCCCCCCCCCCCCCCCCCP(=O)(OCCCC)OP(=O)(O)OP(=O)(O)OP(=O)(O)OC[C@@H]1C=C[C@H](n2cc(C)c(=O)[nH]c2=O)O1 (stereo partly drawn)

Retention_time [6]: 15.1 min
Compound: CCCCCCCCCCCCCCCCCCP(=O)(OCC(CC)CCCC)OP(=O)(O)OP(=O)(O)OP(=O)(O)OC[C@@H]1C=C[C@H](n2cc(C)c(=O)[nH]c2=O)O1 (stereo partly drawn)

Retention_time [6]: 20.7 min
Compound: CCCCCCCCCCCCCCCCCCOP(=O)(OCCCCCCCCCCCCCCCCCC)OP(=O)(O)OP(=O)(O)OP(=O)(O)OC[C@@H]1C=C[C@H](n2cc(C)c(=O)[nH]c2=O)O1
